Laboratory results: patent US20260297031A1, “HYDROXYLAMINE-BASED BCR-ABL1 INHIBITORS FOR TREATMENT OF CANCER” (University of Georgia Research Foundation, Inc., priority 2023, published 2026)
Converted amounts (≈) assume the structure as drawn.

Tests used:
BCR-ABL1 Y253F = target: T1, BCR-ABL1 Y253F (Homo sapiens, UniProt P00519, Y253F); assay: KinaseProfiler radiometric kinase assay, BCR-ABL1 Y253F; type: biochemical; details: [ATP] = 10 μM; mean of n = 2
T1 construct: BCR (fusion partner, as the printed name BCR-ABL1 says)

mutant BCR-ABL1 = assay: KinaseProfiler radiometric kinase assay, mutant BCR-ABL1 kinases as a group; type: biochemical, human; details: for IC50: read-out: IC50 against (imatinib resistant / relevant) mutant BCR-ABL1 kinases, group of mutants
Text: Biochemical Human RTK Kinase Enzymatic Radiometric Assay, KinaseProfiler (Independently Performed by Eurofins Cerep SA, FR)

BCR-ABL1 wt = target: T2, BCR-ABL1 wt (Homo sapiens, UniProt P00519); assay: KinaseProfiler radiometric kinase assay, BCR-ABL1 wt; type: biochemical; details: [ATP] = 10 μM; mean of n = 2
T2 construct: called BCR-ABL1 in the text

BCR-ABL1 Q252H = target: T3, BCR-ABL1 Q252H (Homo sapiens, UniProt P00519, Q252H); assay: KinaseProfiler radiometric kinase assay, BCR-ABL1 Q252H; type: biochemical; details: [ATP] = 10 μM; mean of n = 2
T3 construct: BCR (fusion partner, as the printed name BCR-ABL1 says)

Aqueous solubility = assay: Aqueous solubility
Protocol: Solubility Determinations (Independently Performed by Pharmaron Inc., Ninqbo, CN)
Test compounds and control compounds (progesterone or diclofenac) were initially prepared as 10 mM DMSO stock solutions. […] After such time, plugs and stir sticks were removed and the samples from the solubility sample plate were transferred into the filter plate. All the samples were then filtered and 5 μL of filtrate was taken and added along with 5 μL of DMSO and 490 μL of a 1:1 (v/v) mixture of H2O and acetonitrile containing internal standard (100 nM alprazolam, 200 nM Caffeine and 100 nM tolbutamide) to the plate yielding a final concentration of 3 μM. The samples were then analyzed by LC-MS and diluted according to the peak shape with ultrapure water.
Filtrate was analyzed and quantified against a standard of known concentration using LC coupled with MS peak identification and quantitation. Solubility values of test compounds and progesterone were calculated as follows and are presented as the mean of n=2 replicates: […]

MDCKII-MDR1 cells = assay: MDCKII-MDR1 permeability
Protocol: MDCKII-MDR1 Permeability (Independently Performed By: Pharmaron Inc., Ninqbo, CN)
To each well of the Transwell insert and reservoir were added 50 μL and 25 mL of cell culture medium, respectively.
To determine the rate of drug transport in the apical to basolateral direction, 125 μL of the working solution of either test compounds or control compounds was added to the Transwell insert (apical compartment) and a 50 μL sample was immediately transferred from the apical compartment to 200 μL of acetonitrile containing internal standard (100 nM alprazolam, 200 nM caffeine, and 100 nM tolbutamide) in a new 96-well plate as the initial donor sample (A-B). The sample was then vortexed at 1,000 rpm for 10 min. The receiver plate (basolateral compartment) wells were then filled with 235 μL transport buffer. To determine the rate of drug transport in the basolateral to apical direction, 285 μL of the working solution of either test compounds or control compounds was added to the receiver plate (basolateral compartment) wells and a 50 μL of sample was immediately transferred from the basolateral compartment to 200 μL of acetonitrile containing internal standard in a new 96-well plate as the initial donor sample (B-A). The sample was vortexed for 10 min at 1,000 rpm. The Transwell insert (apical compartment) was then filled with 75 μL of transport buffer and the apical to basolateral direction and the basolateral to apical direction were done at the same time. […] After incubation, 50 μL samples from donor sides (apical compartment for Ap→BI flux, and basolateral compartment BI→Ap) and receiver sides (basolateral compartment for Ap→BI flux, and apical compartment for BI→Ap) were transferred to wells of a new 96-well plate, followed by the addition of 200 μL acetonitrile containing internal standard. […] An aliquot of 100 μL of the supernatant was mixed with an appropriate volume of ultra-pure water before LC-MS/MS analysis.
To monitor for monolayer integrity, Lucifer yellow leakage was determined after the 2 h transport period. This began by preparing a stock solution of Lucifer yellow in DMSO and diluted with HBSS (10 mM HEPES, pH 7.4.) to reach a final concentration of 100 μM. To each Transwell insert (apical compartment) was then added 100 μL of the Lucifer yellow solution, followed by filling the wells in the receiver plate (basolateral compartment) with 300 μL of HBSS (10 mM HEPES, pH 7.4).
The efflux ratio was determined using the following equation: […]

[1] = Plasma protein binding by equilibrium dialysis, mouse plasma; type: in vitro ADME, mouse (CD-1); details: 360 min, 5 µM
Protocol: Plasma Protein Binding by Equilibrium Dialysis (Independently Performed by Pharmaron Inc., Ninqbo, CN)
Initially, 1 mM solutions of test compounds and the control compound (Ketoconzaole) were prepared in DMSO. After this, dialysis membranes were soaked in ultrapure water for 60 min to separate strips, followed by 20% aq. ethanol for 20 min, and finally in a dialysis buffer for 20 min. […] After this, 597 μL of blank plasma solution followed by 3 μL of the working solutions of either test compounds or control compound were added to a new plastic plate or separate plastic tube and the solutions were vortexed at 1,000 rpm for 2 min. Immediately after this, 50 μL of spiked plasma solution suspension was transferred to a 96-well plate to act as T=0 control. The remaining samples were treated in the same manner, whereby all remaining spiked plasma solutions were added to the incubator for the duration of the study.
Cells were then loaded with 120 μL of the plasma samples and dialyzed against an equal volume of dialysis buffer (PBS). […] The samples were analyzed by LC-MS/MS and 100 μL of distilled water was added to each sample prior to analysis.
Concentrations of test compounds and control compound in buffer and plasma solution chambers was determined and percentages of test compounds and control compound bound using the following equations (mean of n=2 replicates): […]

hERG channel = hERG channel (Homo sapiens, UniProt Q12809); assay: hERG safety evaluation by manual patch-clamp system
Chain of hERG channel (Q12809 whole entry): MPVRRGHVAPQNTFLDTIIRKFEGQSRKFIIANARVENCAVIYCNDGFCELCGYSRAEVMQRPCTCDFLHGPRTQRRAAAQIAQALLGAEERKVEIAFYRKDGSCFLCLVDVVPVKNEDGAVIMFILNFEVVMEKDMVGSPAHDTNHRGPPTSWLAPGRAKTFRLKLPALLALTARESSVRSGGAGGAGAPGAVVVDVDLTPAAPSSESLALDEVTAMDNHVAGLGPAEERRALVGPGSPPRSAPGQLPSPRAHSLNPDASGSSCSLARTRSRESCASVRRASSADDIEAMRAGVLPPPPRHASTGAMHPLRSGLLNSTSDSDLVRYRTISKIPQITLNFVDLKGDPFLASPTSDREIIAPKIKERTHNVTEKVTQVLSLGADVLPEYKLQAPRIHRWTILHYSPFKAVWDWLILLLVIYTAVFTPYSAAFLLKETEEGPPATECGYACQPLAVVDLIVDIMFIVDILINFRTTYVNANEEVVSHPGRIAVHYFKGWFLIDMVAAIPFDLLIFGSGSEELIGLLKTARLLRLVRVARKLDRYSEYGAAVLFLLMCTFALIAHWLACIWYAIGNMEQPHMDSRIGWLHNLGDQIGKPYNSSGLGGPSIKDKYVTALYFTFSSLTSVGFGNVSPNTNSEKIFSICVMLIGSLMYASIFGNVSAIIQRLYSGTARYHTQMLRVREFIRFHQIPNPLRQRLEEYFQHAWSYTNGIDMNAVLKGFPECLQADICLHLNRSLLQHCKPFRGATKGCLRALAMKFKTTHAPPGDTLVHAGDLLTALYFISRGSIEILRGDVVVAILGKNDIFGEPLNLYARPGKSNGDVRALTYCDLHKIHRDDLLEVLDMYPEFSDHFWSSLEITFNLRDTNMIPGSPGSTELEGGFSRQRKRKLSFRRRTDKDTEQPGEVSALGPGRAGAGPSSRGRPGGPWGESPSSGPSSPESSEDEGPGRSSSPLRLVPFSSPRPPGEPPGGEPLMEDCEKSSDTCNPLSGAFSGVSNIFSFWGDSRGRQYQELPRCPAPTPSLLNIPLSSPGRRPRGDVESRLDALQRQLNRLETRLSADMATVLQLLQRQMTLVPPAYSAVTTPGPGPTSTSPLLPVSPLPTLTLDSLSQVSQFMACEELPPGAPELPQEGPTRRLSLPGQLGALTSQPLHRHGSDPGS

SMILES	IC50 (BCR-ABL1 Y253F) [nM]	BCR-ABL1 kinase activity, in words (mutant BCR-ABL1)	IC50 (mutant BCR-ABL1) [nM]	IC50 (BCR-ABL1 wt) [nM]	IC50 (BCR-ABL1 Q252H) [nM]	solubility kinetic at 2 h (Aqueous solubility; phosphate buffer, pH 7.4, aqueous buffer) [µM]	efflux (P-gp), in words (MDCKII-MDR1 cells; MDCKII-MDR1)	% Unbound [1] [%]	hERG liability, in words (hERG channel)	solubility, in words (Aqueous solubility)	fold enhancement in permeability (MDCKII-MDR1 cells; MDCKII-MDR1, relative to bosutinib)	permeability in MDCKII-MDR1 cells, in words (MDCKII-MDR1 cells; MDCKII-MDR1)
COc1cc(Nc2c(C#N)cnc3cc(OCCON4CCN(C)CC4)c(OC)cc23)c(F)cc1Cl [Compound 15, 4-((4-chloro-2-fluoro-5-methoxyphenyl)amino)-6-methoxy-7-(2-((4-methylpiperazin-1-yl)oxy)ethoxy)quinoline-3-carbonitrile]	1	single-digit nanomolar biochemical activity	< 1	1	2	43 (≈ 22.2 µg/mL)	no further improvement in drug efflux was seen	–	–	–	–	–
COc1cc2c(Nc3cccc(OC)c3Cl)c(C#N)cnc2cc1OCCON1CCN(C)CC1 [Compound 17, 4-((2-Chloro-3-methoxyphenyl)amino)-6-methoxy-7-(2-((4-methylpiperazin-1-yl)oxy)ethoxy)quinoline-3-carbonitrile]	–	–	≥ 15	–	37	–	greatly reduced efflux ratio	11.93	minimal hERG inhibition	high aqueous solubility at pH 7.4	31 -fold	–
COc1cc(Cl)ccc1Nc1c(C#N)cnc2cc(OCCON3CCN(C)CC3)c(OC)cc12 [Compound 20, 4-((4-Chloro-2-methoxyphenyl)amino)-6-methoxy-7-(2-((4-methylpiperazin-1-yl)oxy)ethoxy)quinoline-3-carbonitrile]	–	–	–	–	10	–	reduced efflux ratios	9.71	–	–	–	markedly improved permeability
